Data taken from patent publication US12485191B2, “Radiopharmaceuticals and methods of use thereof” (BOARD OF REGENTS OF THE UNIVERSITY OF NEBRASKA, priority 2017, dated 2025).
Marks after values point to notes of the source that are not given here.

Assays:
[1] = target: T1, cathepsin B (human Liver) (Homo sapiens, UniProt P07858); assay: Inhibition constant (Ki) of the compounds to cathepsin B; format: biochemical
T1 construct: from tissue; host or cells: human liver
Protocol: Determination of the Km and Vmax of Cathepsin B for Z-Arg-Arg-AMC
The solution of cathepsin B (human Liver) (50 μL, 2 nM) in assay buffer used above was mixed with 50 μL of solution of substrate Z-Arg-Arg-AMC in the assay buffer at different concentrations ([S]) (25 μM, 50 μM, 100 μM, 500 μM and 1 mM). The mixture was incubated at 37° C. and the fluorescence of the liberated aminomethylcoumarin at 460 nM using 355 nm excitation was measured at predetermined time points (0, 2, 4, 6, 8, and 10 minutes). The fluorescence intensity was plotted versus time and the reaction rates (v0) were calculated as the slope of the trend lines obtained by liner regression. Km and maximum reaction rate (Vmax-obs) was determined from the equation v0=Vmax[S]/(Km+[S]) and solved by nonlinear regression using GraphPad Prism 5. All measurements were in biological triplicate.
Determination of the Inhibition Constant (Ki) of the Compounds to Cathepsin B
The cathepsin B (human Liver) in assay buffer (25 μL) was mixed with the conjugate (25 μL) in 96-well plate. After the solution was mixed, the Z-Arg-Arg-AMC in assay buffer (50 μL) was added to the well, yielding a final cathepsin B concentration of 1 nM, conjugate concentration ([C]) of 15 nM or 5 μM, and substrate concentration ([S]) of 25 μM, 50 μM, 100 μM, 500 μM and 1 mM. The mixture was incubated at 37° C. and the fluorescence of the liberated aminomethylcoumarin at 460 nM using 355 nm excitation was measured at predetermined time points (0, 2, 4, 6, 8, and 10 minutes). The fluorescence intensity was plotted versus time with observed reaction rates (v0-obs) calculated as the slope of the trend lines obtained by liner regression. The observed rate constant (Kobs) and observed maximum reaction rate (Vmax-obs) was determined from the equation v0-obs=Vmax-obs [S]/(Kobs+[S]) and solved by nonlinear regression using GraphPad Prism 5. The Ki was calculated from the equation Kobs=Km (1+[C]/Ki). All measurements were in biological triplicate.

[2] = Distribution coefficient (Log D7.4) of the conjugates; format: physicochemical; settings: determined by HPLC analysis
[3] = as above; format: physicochemical
Protocol: Distribution Coefficient (Log D7.4) of the Conjugates The distribution coefficient was determined for each ^177Lu-labeled conjugate. In a 1.5 mL centrifuge tube, 0.5 mL of 1-octanol was added to 0.5 mL of PBS (pH 7.4) containing the radiolabeled peptide (500,000 cpm). The solution was vigorously vortexed for 2 minutes at room temperature and subsequently centrifuged to yield two immiscible layers. The radioactivity of the aliquots (100 μL) taken from each layer were quantified by the gamma counter and the Log D7.4 for each conjugates was calculated.

HT-29 cells [4] = assay: HT-29 cell efflux study; format: cell-based, human; settings: at 24 hours
Protocol: The HT-29 Cell Efflux Studies
The ^177Lu radioconjugate was added to a sterilized 1.5 mL microcentrifuge tube containing HT-29 cells ˜1×10^6) suspended in 300 μL of cell culture medium, yielding a final radioactivity concentration of 100,000 cpm/100 μL, and was incubated for 2 hours at 37° C. After the removal of the culture medium, the cells were washed with fresh medium (5×500 μL) followed by the addition of 500 μL of fresh medium for the efflux assay. At 0, 1, 2, 4, 8, and 24 hour time interval, fresh medium (500 μL) was added to the tube to replace the old medium which was harvested for quantitative analysis of the effluxed radioactivity using a gamma counter. The cells were lysed with a 10% aqueous SDS solution at 24 hour to quantify the remaining internalized radioactivity. The effluxed fraction is expressed as a percentage of the total radioactivity added to the tube, which is the sum of the effluxed and internalized fractions obtained from the study.

HT-29 cells [5] = assay: Intracellular trapping of the radioconjugates in living HT-29 cells (GPC, SDS-PAGE); format: cell-based, human; settings: live HT-29 cells, GPC and SDS-PAGE
Protocol: Intracellular Trapping of the Radioconjugates in Living HT-29 Cells
To the HT-29 cells (1×10^6/well) seeded in 6-well plates was added the radioconjugates (0.74 MBq, 20 μCi) in 1 mL of cell culture medium. The cells were incubated at 37° C. for 4 hours and the medium was removed by vacuum followed washing with PBS (2×2 mL). The cells (˜3×10^6) were trypsinized and combined in microcentrifuge. The RIPA buffer (100 μL) containing Halttmprotease inhibitor (100×, 1 μL) was added to the cell pellet and vigorously vortexed for 1 minute. The suspension was incubated on ice for 15 minutes and centrifuged to remove the pellet. The supernatant (80 μL) was equally divided into two portions. The first portion (40 μL) was directly analyzed by radioactive-GPC with a flow rate of 0.6 mL/minute (40% ACN in PBS containing 0.1% sodium azide). The second portion (40 μL) of the cell lysate was mixed with Novex Tris-Glycine SDS sample buffer (2×) (40 μL) and incubated for another 15 minutes. The mixture (30 μL) was loaded onto a Novex 16% tris-glycine gel and analyzed by SDS-PAGE at 110 V for 90 minutes. The autoradiograph of the SDS-PAGE was performed as described above.

CatB = CatB (Homo sapiens, UniProt P07858); assay: CatB inhibition of GRPR-targeted agents; format: biochemical
Protocol: The Inhibition of Cathepsin B Activity by the Conjugates The phosphate buffer (0.1 M, pH=5.8) containing EDTA (1 mM), DTT (2.7 mM), and Brij®35 (0.03%) was prepared before the assay. […] The solution of cathepsin B (human Liver) in assay buffer (50 μL, 0.544 nM) was added to the mixture which was further incubated at 37° C. for 20 minutes. The fluorescence of the liberated aminomethylcoumarin at 460 nM using 355 nm excitation was measured and the IC50 of the cathepsin B inhibition versus the samples without the inhibitor was determined by nonlinear regression using GraphPad Prism 5.

PC-3 cells [6] = assay: Efflux study in PC-3 cells; format: cell-based, human; settings: over a 24 hour time period
PC-3 cells [7] = assay: Cellular adduct study (SDS-PAGE of cellular lysates); format: cell-based, human
PC-3 tumor [8] = assay: Autoradiography of SDS-PAGE of tissue lysates from PC-3 tumor bearing mice; format: in vivo; settings: liver, pancreas, kidney at 24 and 72 hours post-injection
PC-3 tumor [9] = settings: mouse, in vivo

| logD7.4 [2] | inhibition of catB (in words) (CatB) | Structure (SMILES) | CatB K1 [1] | logD7.4 ([3]; GRPR-targeted agents) | reduction in efflux compared to the analogous control (PC-3 cells [6]) [%] | cellular adducts (in words) (PC-3 cells [7]) | adduct formation in tissue lysates (in words) (PC-3 tumor [8]) | tumor retention (PC-3 tumor [9]) [%] | also measured |
| --- | --- | --- | --- | --- | --- | --- | --- | --- | --- |
| – | low nanomolar inhibition | CSCC[C@H](NC(=O)[C@H](CC(C)C)NC(=O)[C@H](Cc1c[nH]cn1)NC(=O)CNC(=O)[C@@H](NC(=O)[C@H](C)NC(=O)[C@H](Cc1c[nH]c2ccccc12)NC(=O)[C@H](CCC(N)=O)NC(=O)CCOCCOCCOCCOCCNC(=O)[C@H](Cc1cn(CCNC(=O)[C@H](CCCNC(=N)N)NC(=O)[C@H](CC(C)C)NC(=O)C2OC2C(=O)O)nn1)NC(=O)CN1CCN(CC(=O)O)CCN(CC(=O)O)CCN(CC(=O)O)CC1)C(C)C)C(N)=O (stereo partly drawn) [^177Lu-A-AG, metal not drawn] | – | −3.1 ± 0.1 | ~20 | cellular adducts are observed | formation of adducts | 62 | – |
| – | low nanomolar inhibition | CC(C)C[C@H](NC(=O)C1OC1C(=O)O)C(=O)N[C@@H](CCCNC(=N)N)C(=O)NCCn1cc(C[C@H](NC(=O)CN2CCN(CC(=O)O)CCN(CC(=O)O)CCN(CC(=O)O)CC2)C(=O)NCCOCCOCCOCCOCCC(=O)N[C@H](Cc2ccccc2)C(=O)N[C@@H](CCC(N)=O)C(=O)N[C@@H](Cc2c[nH]c3ccccc23)C(=O)N[C@@H](C)C(=O)N[C@H](C(=O)NCC(=O)N[C@@H](Cc2c[nH]cn2)C(=O)N[C@@H](CC(C)C)[C@@H](O)CC(=O)N[C@H](CC(C)C)C(N)=O)C(C)C)nn1 (stereo partly drawn) [^177Lu-A-ANT, metal not drawn] | – | −2.3 ± 0.2 | 5 | cellular adducts are observed | formation of adducts | 32 | – |

Further lines, the compound ahead of its results:

| Structure (SMILES) | logD7.4 [2] | inhibition of catB (in words) (CatB) | CatB K1 [1] | logD7.4 ([3]; GRPR-targeted agents) | reduction in efflux compared to the analogous control (PC-3 cells [6]) [%] | cellular adducts (in words) (PC-3 cells [7]) | adduct formation in tissue lysates (in words) (PC-3 tumor [8]) | tumor retention (PC-3 tumor [9]) [%] | also measured |
| --- | --- | --- | --- | --- | --- | --- | --- | --- | --- |
| Cc1cc(C)c(C(=O)OCC(=O)[C@H](CCCCN)NC(=O)[C@H](Cc2ccccc2)NC(=O)OCc2ccccc2)c(C)c1 [Compound 1a] | 2.08 ± 0.08^a | – | – | – | – | – | – | – | Ki ([1]; read-out: CatB K1): 0.023 ± 0.001 µM |
| NCCCCC(NC(=O)C(Cc1ccccc1)NC(=O)OCc1ccccc1)C(=O)NCCc1ccccc1 (stereo not drawn) [Compound 1b] | 2.51 ± 0.02^a | – | ni^c | – | – | – | – | – | – |
| Cc1cc(O)cc(C)c1C[C@H](NC(=O)[C@@H]1CCCN1C(=O)[C@H](CCCNC(=N)N)NC(=O)[C@H](CCCNC(=N)N)N(C)C(=O)[C@@H]1CCCN1C(=O)[C@H](CCCCN)NC(=O)CCNC(=O)[C@H](Cc1cn(CCOCCOCCOCC(=O)NCCCC[C@H](NC(=O)[C@H](Cc2ccccc2)NC(=O)OCc2ccccc2)C(=O)NCCc2ccccc2)nn1)NC(=O)CN1CCN(CC(=O)O)CCN(CC(=O)O)CCN(CC(=O)O)CC1)C(=O)N[C@H](C(=O)N[C@@H](CC(C)C)C(=O)O)C(C)(C)C [Compound 3a] | – | – | ni | – | – | – | – | – | logD7.4 ([3]; determined by radiometric analysis, 177Lu-labeled conjugate): −1.56 ± 0.07^b; Ki and inhibition IC50 to CatB (in words) [1]: did not demonstrate any inhibition; efflux (HT-29 cells [4]): 66%; intracellular adduct formation (in words) (HT-29 cells [5]): no adduct formation |
